Among the data in ChEMBL document CHEMBL5352447, “Development of [1,2]oxazoloisoindoles tubulin polymerization inhibitors: Further chemical modifications and potential therapeutic effects against lymphomas” (Eur J Med Chem, 2022) are GI50, IC50 and inhibition values, retold here.

One assay concerns HL-60(TB). Kind of assay: Antiproliferative activity against human HL-60(TB) cells assessed as cell growth inhibition incubated for 72 hrs by MTT assay. It counts as functional. On the technique in general: Tetrazolium dyes change colour on reduction, which living cells bring about.
The subject of the next assay is K562. Kind of assay: Antiproliferative activity against human K562 cells assessed as cell growth inhibition incubated for 72 hrs by MTT assay. It counts as functional.
The subject of a further assay is SR. Kind of assay: Antiproliferative activity against human SR cells assessed as cell growth inhibition incubated for 72 hrs by MTT assay. It counts as functional.
The next assay concerns A549. Kind of assay: Antiproliferative activity against human A549 cells assessed as cell growth inhibition incubated for 72 hrs by MTT assay. Type of assay: functional.
In another assay the test system is NCI-H522. Nature of the assay: Antiproliferative activity against human NCI-H522 cells assessed as cell growth inhibition incubated for 72 hrs by MTT assay. It counts as functional.
Another assay deals with HCC 2998. Kind of assay: Antiproliferative activity against human HCC 2998 cells assessed as cell growth inhibition incubated for 72 hrs by MTT assay. It counts as functional.
The test system of the next assay is SW-620. Nature of the assay: Antiproliferative activity against human SW620 cells assessed as cell growth inhibition incubated for 72 hrs by MTT assay. It counts as functional.
In the next assay the test system is SF-539. Kind of assay: Antiproliferative activity against human SF-539 cells assessed as cell growth inhibition incubated for 72 hrs by MTT assay. Type of assay: functional.
The subject of another assay is M14. Nature of the assay: Antiproliferative activity against human M14 cells assessed as cell growth inhibition incubated for 72 hrs by MTT assay. It counts as functional.
In a further assay the test system is SK-MEL-28. Nature of the assay: Antiproliferative activity against human SK-MEL-28 cells assessed as cell growth inhibition incubated for 72 hrs by MTT assay. It counts as functional.
The next assay has as its system UACC-257. Nature of the assay: Antiproliferative activity against human UACC-257 cells assessed as cell growth inhibition incubated for 72 hrs by MTT assay. It counts as functional.
A further assay has as its system A498. Kind of assay: Antiproliferative activity against human A498 cells assessed as cell growth inhibition incubated for 72 hrs by MTT assay. It counts as functional.
The next assay concerns CAKI-1. Nature of the assay: Antiproliferative activity against human CAKI-1 cells assessed as cell growth inhibition incubated for 72 hrs by MTT assay. It counts as functional.
For another assay, the system named is SN12C. Kind of assay: Antiproliferative activity against human SN12C cells assessed as cell growth inhibition incubated for 72 hrs by MTT assay. It counts as functional.
Another assay has as its system TK-10. Nature of the assay: Antiproliferative activity against human TK-10 cells assessed as cell growth inhibition incubated for 72 hrs by MTT assay. Type of assay: functional.
In assay [1] the test system is MCF7. Nature of the assay: Antiproliferative activity against human MCF7 cells assessed as cell growth inhibition incubated for 72 hrs by MTT assay. It counts as functional.
A further assay concerns MDA-MB-468. Kind of assay: Antiproliferative activity against human MDA-MB-468 cells assessed as cell growth inhibition incubated for 72 hrs by MTT assay. Type of assay: functional.
Assay [2] can be described thus: Antiproliferative activity against human MINO cells assessed as inhibition of cell proliferation incubated for 72 hrs by MTT assay. It counts as functional, cell-based.
Assay [3] can be described thus: Antiproliferative activity against human HBL1 cells assessed as inhibition of cell proliferation incubated for 72 hrs by MTT assay. It counts as functional, cell-based. The conditions noted are these: HBL1, 72 h.
Assay [4] concerns MCF7. Kind of assay: Cytotoxicity against human MCF7 cells assessed as cell growth inhibition. Type of assay: functional, cell-based.
Another assay addresses Tubulin. Kind of assay: Inhibition of tubulin assembly (unknown origin). Type of assay: protein-complex assay, Homo sapiens.
In the next assay the target is Tubulin (Homo sapiens) (UniProt P68371+Q9H4B7+P0DPH7+P68366+Q13509+Q71U36+P04350+Q3ZCM7+P07437+P68363+Q9BQE3+Q6PEY2+Q13885+Q9BVA1+Q9BUF5). Nature of the assay: Inhibition of [3H]Colchicine binding to tubulin (unknown origin) at 5 uM relative to control. It counts as protein-complex assay.
Another assay has as its system LOX IMVI. Kind of assay: Antiproliferative activity against human LOX IMVI cells assessed as cell growth inhibition incubated for 72 hrs by MTT assay. It counts as functional.
The test system of the next assay is OVCAR-3. Nature of the assay: Antiproliferative activity against human OVCAR-3 cells assessed as cell growth inhibition incubated for 72 hrs by MTT assay. Type of assay: functional.

By GI50 is commonly meant the concentration giving 50% growth inhibition. The pIC50 is the IC50 on a negative log10 scale, so that one unit is a factor of ten. Broadly, the inhibition is the relative decrease from the control value, in per cent.

pIC50: −log10 of the molar value.

With `COc1ccc(Cn2cc3c(c2-c2cc(OC)c(OC)c(OC)c2)CCc2c(CN4CCCC4)noc2-3)cc1`, the GI50 in the assay with HL-60(TB) was determined as 320 nM; in the assay on K562, 350 nM; with SR, 360 nM; in the assay with A549, 1330 nM; in the assay on NCI-H522, 470 nM; in the assay with HCC 2998, 1840 nM. Moreover, the GI50 in the assay on SW-620 stood at 540 nM; in the assay on SF-539, 750 nM; in the assay with M14 it was 580 nM; with SK-MEL-28, 11500 nM; with UACC-257 it was 17000 nM; in the assay on A498 it was 780 nM. Moreover, the GI50 in the assay on CAKI-1 amounted to 450 nM; in the assay with SN12C, 4430 nM; in the assay on TK-10, 23400 nM; in the assay on MCF7 [1] it was 330 nM; in the assay with MDA-MB-468, 280 nM. The pIC50 in assay [2] is 6.30; in assay [3], 6.22; in the assay on MCF7 [4], 5.96; at Tubulin, 5.55. At Tubulin (Homo sapiens), this molecule yielded an inhibition of 24%.
Regarding `CCOC(=O)c1noc2c1CCc1c-2cn(Cc2ccc(OC)cc2)c1-c1cc(OC)c(OC)c(OC)c1`, the 50% growth inhibitory concentration (GI50) in the assay on HL-60(TB) was 450 nM; with SR it was 2090 nM; in the assay on A549, 3800 nM; in the assay with NCI-H522 it was 370 nM; with HCC 2998, 5170 nM; with SW-620, 500 nM. Also, the concentration for 50% growth inhibition (GI50) was 1840 nM in the assay with SF-539; 650 nM with LOX IMVI; 410 nM with M14; 1900 nM with SK-MEL-28; 85800 nM in the assay on UACC-257; 370 nM with OVCAR-3. Besides, the GI50 is 2770 nM in the assay with A498; 3920 nM in the assay with SN12C; over 100000 nM in the assay with TK-10; 350 nM in the assay on MCF7 [1]; 5620 nM in the assay with MDA-MB-468. For the same molecule, the negative-log IC50 (pIC50) in assay [2] is 5.85; in assay [3], 5.77.
With `COc1ccc(Cn2cc3c(c2-c2cc(OC)c(OC)c(OC)c2)CCc2c(CO)noc2-3)cc1`, the 50% growth inhibitory concentration (GI50) worked out at 210 nM in the assay on HL-60(TB); 210 nM with SR; 420 nM in the assay with A549; 150 nM with NCI-H522; 1340 nM with HCC 2998; 370 nM with SW-620. The GI50 in the assay with SF-539 was found to be 230 nM; with LOX IMVI it was 570 nM; in the assay on M14, 150 nM; with SK-MEL-28 it was 3600 nM; in the assay with UACC-257, 14700 nM; in the assay with OVCAR-3, 220 nM. Besides, the GI50 in the assay with A498 stood at 280 nM; in the assay with SN12C, 720 nM; in the assay on TK-10 it was 17700 nM; with MCF7 [1] it was 90 nM; with MDA-MB-468 it was 330 nM. Further, the negative logarithm of the IC50 (pIC50) in assay [2] is 5.85; in assay [3], 5.77.
For the molecule `COc1ccc(Cn2cc3c(c2-c2cc(OC)c(OC)c(OC)c2)CCc2c(CN4CCOCC4)noc2-3)cc1`, the GI50 was 390 nM in the assay on HL-60(TB); 430 nM with K562; 380 nM in the assay with SR; 1130 nM in the assay with A549; 300 nM in the assay on NCI-H522; 2170 nM in the assay with HCC 2998. For the same molecule, the GI50 in the assay on SW-620 is 430 nM; in the assay on SF-539, 440 nM; in the assay with LOX IMVI, 620 nM; in the assay on M14, 560 nM; in the assay on SK-MEL-28, over 100000 nM; with UACC-257 it was 1000 nM. The concentration for 50% growth inhibition (GI50) is 320 nM with A498; 380 nM with CAKI-1; 3810 nM in the assay with SN12C; over 100000 nM with TK-10; 360 nM with MCF7 [1]; 340 nM in the assay with MDA-MB-468. Moreover, the pIC50 was 6.30 in assay [2], 6.30 in [3], 6.33 in the assay on MCF7 [4] and 6.00 at Tubulin. This molecule also had an inhibition on Tubulin (Homo sapiens) of 33%.
